Reference: patent publication US20090311246A1, “Method of Enhancing Remyelination in Demyelinating Diseases of the Central Nervous System” (priority 2008, published 2009)

Assays:
Format in all cases: binding
[1] = test system: sera from SFV-infected B6 mice
Procedure: To measure the antibody response of both WT and γδ KO mice against SFV and two of the peptides of the SFV envelope protein, E2, an indirect ELISA was performed. Sera were pooled from 4-6 SFV-infected WT, and 3 KO, mice on days 0, 7, 14, 21 and 35 pi. Briefly, Immunolon 2HB 96 well microtiter plates (VWR, Bridge Port, N.J.) were coated with 1 μg/well of each antigen in 100 μl/well carbonate buffer overnight at room temperature. After washing, the plates were blocked and serum samples were added. […] After washing, biotinylated goat anti-mouse Igs (BD Pharmingen, Torreyana, Calif.), Strepavidin conjugated to Horse Radish Peroxidase (Vector Laboratories, Burlingame, Calif.), and OPD substrate (Sigma, St. Louis, Mo.) were used, as previously described (4, 9). […] Values were considered to be positive when they were >0.3 OD units and exceeded the mean value plus three standard deviations for antibody response on day 0 pi of mice of the same strain. […]
In some instances day 0 OD values were high, thus making the differences appear small. Therefore, to account for such discrepancy, we also determined the ratio of the highest day (day 15 or 21) over day 0.

[2] = test system: Rabbit Anti-SFV polyclonal antibody; assay: Indirect ELISA of rabbit anti-SFV polyclonal IgG against viral and myelin antigens
Procedure: The total IgG fraction was commercially prepared (Strategic Biosolutions, Ramona, Calif.) from pooled sera of 3 rabbits immunized once with UV-inactivated SFV (A774 strain) emulsified in CFA and boosted 3 times with antigen in IFA at weeks 3, 5, and 7. The IgG fraction of the pooled antisera was purified by ion-exchange chromatography and contained 8.7 mg IgG/ml of PBS. Antibody activities to SFV and peptides of SFV, to E2, and to recombinant ® MOG and its peptides were confirmed by ELISA. Normal rabbit IgG, isolated from pooled normal rabbit sera by ion-exchange chromatography (Signa Chemical Co., St. Louis, Mo.), was dissolved in saline. Protein concentration was determined by the Bradford assay (Sigma), using normal rabbit IgG as the standard. The IgG solutions were diluted to 3 mg protein/ml in saline and sterilized by passage through a 0.22 μm filter (Millipore Corp., Bedford, Mass.).
To measure the antibody response of both WT and γδ KO mice against SFV and two of the peptides of the SFV envelope protein, E2, an indirect ELISA was performed. Sera were pooled from 4-6 SFV-infected WT, and 3 KO, mice on days 0, 7, 14, 21 and 35 pi. Briefly, Immunolon 2HB 96 well microtiter plates (VWR, Bridge Port, N.J.) were coated with 1 μg/well of each antigen in 100 μl/well carbonate buffer overnight at room temperature. After washing, the plates were blocked and serum samples were added. […] After washing, biotinylated goat anti-mouse Igs (BD Pharmingen, Torreyana, Calif.), Strepavidin conjugated to Horse Radish Peroxidase (Vector Laboratories, Burlingame, Calif.), and OPD substrate (Sigma, St. Louis, Mo.) were used, as previously described (4, 9). […] Values were considered to be positive when they were >0.3 OD units and exceeded the mean value plus three standard deviations for antibody response on day 0 pi of mice of the same strain.
The polyclonal rabbit anti SFV antibody was commercially prepared (Strategic Biosolutions, Ramona, Calif.) from pooled sera of 3 rabbits, immunized once with UV-inactivated SFV (A774 strain) emulsified in CFA and boosted 3 times with antigen in IFA at weeks 3, 5, and 7.

[3] = test system: sera from SFV-infected WT and γδ KO mice; assay: ELISA of sera from SFV-infected WT and γδ KO mice against SFV, E2 peptides, PPD and rMOG

With `CC[C@H](C)[C@H](NC(=O)[C@H](CCC(=O)O)NC(=O)[C@H](CCCCN)NC(=O)CNC(=O)[C@H](Cc1ccc(O)cc1)NC(=O)[C@H](Cc1c[nH]cn1)NC(=O)[C@@H]1CCCN1C(=O)[C@H](CCCNC(=N)N)NC(=O)[C@@H](NC(=O)[C@@H](NC(=O)[C@H](Cc1ccccc1)NC(=O)[C@H](CCCCN)NC(=O)[C@H](CCC(=O)O)NC(=O)[C@H](CCCNC(=N)N)NC(=O)CN)[C@@H](C)O)[C@@H](C)CC)C(=O)O` [E2 137-151] the “Dh / D0 (Ratio)” value ([1]; OD of highest day (day 15 or 21) over day 0, SFV-infected sera) was 3.96, the “Dh−D0 (difference)” value ([1]; OD of highest day minus day 0, SFV-infected sera) was 0.406 and the “Net change in the levels of antibody (ΔOD), D7-9” value ([1]; SFV-infected mice sera, days 7-9 pi, day 0 OD subtracted) was 0.84 ± 0.39 ΔOD. For the same compound, the “Net change in the levels of antibody (ΔOD), D14-16” value ([1]; SFV-infected mice sera, days 14-16 pi, day 0 OD subtracted) was 1.83 ± 0.47 ΔOD, the “Net change in the levels of antibody (ΔOD), D21-23” value ([1]; SFV-infected mice sera, days 21-23 pi, day 0 OD subtracted) was 2.19 ± 0.76 ΔOD and the “Net change in the levels of antibody (ΔOD), D31-35” value ([1]; SFV-infected mice sera, days 31-35 pi, day 0 OD subtracted) was 2.08 ± 0.67 ΔOD. The “Reactivity of sera from SFV-infected B6 mice with the antigen in ELISA” value ([1]; vs day 0) was “reacted”, the “Rabbit Anti-SFV Ab, OD at 490 nm” value ([2]; 10^−2 diluted, indirect ELISA) was 1.107 OD and the “Immunoreactivity of IgG fraction of serum from rabbits immunized with UV-inactivated SFV” value ([2]; ELISA) was “strong immunoreactivity”. The “OD Difference” value ([2]; Rabbit Anti-SFV Ab minus Normal Rabbit Serum) was 0.934 OD, the “Net change in the level of antibody, D0 WT” value ([3]; WT mice, day 0) was 0 nano gr and the “Net change in the level of antibody, D7 WT” value ([3]; WT mice, day 7 pi, ± SD) was 72 ± 28 nano gr. For the same compound, the “Net change in the level of antibody, D14 WT” value ([3]; WT mice, day 14 pi, ± SD) was 565 ± 33 nano gr, the “Net change in the level of antibody, D21 WT” value ([3]; WT mice, day 21 pi, ± SD) was 1196 ± 61 nano gr and the “Net change in the level of antibody, D35 WT” value ([3]; WT mice, day 35 pi, ± SD) was 951 ± 50 nano gr. For the same compound, the “Reactivity of sera from SFV-infected WT mice” value ([3]; WT, sera 1:80, day 7 pi increasing to day 35) was “reacted strongly”, the “Net change in the level of antibody, D0 KO” value ([3]; γδ KO mice, day 0) was 0 nano gr and the “Net change in the level of antibody, D7 KO” value ([3]; γδ KO mice, day 7 pi, ± SD) was 39 ± 25 nano gr. For the same compound, the “Net change in the level of antibody, D14 KO” value ([3]; γδ KO mice, day 14 pi, ± SD) was 36 ± 19 nano gr, the “Net change in the level of antibody, D21 KO” value ([3]; γδ KO mice, day 21 pi, ± SD) was 46.5 ± 19 nano gr and the “Net change in the level of antibody, D35 KO” value ([3]; γδ KO mice, day 35 pi, ± SD) was 41 ± 28 nano gr. The “Reactivity of sera from SFV-infected γδ KO mice” value ([3]; γδ KO, sera 1:80) was “marginally reacted”.
